In one data set the test system is Moraxella catarrhalis. The experiment in a line: Antibacterial activity against Moraxella catarrhalis ATCC 23246 by CLSI broth microdilution method. The format is functional.
The subject of a further data set is Streptococcus pyogenes. The experiment in a line: Antibacterial activity against Streptococcus pyogenes ATCC 700294 by CLSI broth microdilution method. The format is functional.
Data set [1] is described as follows: Antiinflammatory activity in mouse splenocytes assessed as inhibition of LPS-induced IL-6 production at 50 uM preincubated for 2 hrs prior to LPS challenge by sandwich ELISA. It counts as functional. The conditions noted are these: Splenocyte.
Data set [2] in a line: Cytotoxicity against human THP1 cells assessed as cell viability at 50 uM after 24 hrs by MTT assay. The format is cell-based, THP-1. Conditions: read-out: Activity.
Data set [3] is described as follows: Antiinflammatory activity in mouse splenocytes assessed as inhibition of LPS-induced IL-6 production in mouse splenocytes at 25 uM preincubated for 2 hrs prior to LPS challenge by sandwich ELISA. The format is functional. Conditions: Splenocyte.
Data set [4] is described as follows: Antiinflammatory activity in mouse splenocytes assessed as inhibition of LPS-induced IL-6 production at 12 uM preincubated for 2 hrs prior to LPS challenge by sandwich ELISA. It counts as functional. The conditions noted are these: Splenocyte.
The target of data set [5] is T1, Cytochrome P450 3A4 (Homo sapiens, UniProt P08684).
T1 sequence (P08684 whole entry): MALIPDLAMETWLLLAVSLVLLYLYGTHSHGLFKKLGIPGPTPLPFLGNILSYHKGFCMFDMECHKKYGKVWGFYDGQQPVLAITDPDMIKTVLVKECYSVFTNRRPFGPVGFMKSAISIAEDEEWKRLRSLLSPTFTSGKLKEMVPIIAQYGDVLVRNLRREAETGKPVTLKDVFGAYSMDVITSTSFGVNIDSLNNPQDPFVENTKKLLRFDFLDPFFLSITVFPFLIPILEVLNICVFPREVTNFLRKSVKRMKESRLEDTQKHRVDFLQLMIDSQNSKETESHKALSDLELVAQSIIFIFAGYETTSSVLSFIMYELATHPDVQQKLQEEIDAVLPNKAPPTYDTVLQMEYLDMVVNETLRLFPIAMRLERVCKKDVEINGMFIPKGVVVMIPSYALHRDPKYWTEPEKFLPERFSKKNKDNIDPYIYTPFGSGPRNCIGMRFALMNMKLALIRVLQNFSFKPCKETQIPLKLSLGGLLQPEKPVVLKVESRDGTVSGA
Description: Inhibition of human recombinant CYP3A4 using DEF as substrate preincubated for 5 to 10 mins before substrate addition
Data set [6] concerns the target T1, Cytochrome P450 3A4. This is another data set of the same source.
Description: Inhibition of human recombinant CYP3A4 using 7-BQ as substrate preincubated for 5 to 10 mins before substrate addition
In a further data set the test system is Streptococcus pneumoniae. The experiment in a line: Antibacterial activity against Streptococcus pneumoniae ATCC 49619 by CLSI broth microdilution method. The format is functional.
For data set [7], the system named is Mus musculus. The experiment in a line: Antiinflammatory activity in BALB/cJ mouse assessed as decrease in LPS-induced neutrophil number in bronchoalveolar lavage fluid at 200 mg/kg, ip administered 2 hrs prior to LPS challenge measured after 24 hrs post LPS challenge. It counts as functional, organism-based. On the set-up: dose 200 mg/kg. The conditions noted are these: Lung.

Data set [8] relates to Mus musculus. The experiment in a line: Antiinflammatory activity in BALB/cJ mouse assessed as decrease in LPS-induced total cell number in bronchoalveolar lavage fluid at 200 mg/kg, ip administered 2 hrs prior to LPS challenge measured after 24 hrs post LPS challenge. On the set-up: dose 200 mg/kg. Conditions: Lung. The format is functional, organism-based.
In a further data set the test system is Staphylococcus aureus. The experiment in a line: Antibacterial activity against Staphylococcus aureus ATCC 13709 by CLSI broth microdilution method. It counts as functional.
Another data set has as its system Haemophilus influenzae. The experiment in a line: Antibacterial activity against Haemophilus influenzae ATCC 49247 by CLSI broth microdilution method. The format is functional.

The record followed here is ChEMBL document CHEMBL2157869, “N'-substituted-2'-O,3'-N-carbonimidoyl bridged macrolides: novel anti-inflammatory macrolides without antimicrobial activity” (J Med Chem, 2012).

Structures are written as SMILES. Converted amounts (≈) assume the structure as drawn. The source made the active and inactive calls. The rule behind the calls is not given here. Bounds are passed on as bounds.

For the molecule `CC[C@H]1OC(=O)[C@H](C)[C@@H](O[C@H]2C[C@@](C)(OC)[C@@H](O)[C@H](C)O2)[C@H](C)[C@@H](O[C@@H]2O[C@H](C)C[C@H]3[C@H]2O/C(=N/C(C)C)N3C)[C@@](C)(OC)C/C(C)=C2/O[C@@]1(C)C=C2C`, the lowest concentration to inhibit growth against Moraxella catarrhalis (MIC) was 8 µg/mL (≈ 10.5 µM).
In turn, `CC[C@H]1OC(=O)[C@H](C)[C@@H](O[C@H]2C[C@@](C)(OC)[C@@H](O)[C@H](C)O2)[C@H](C)[C@@H](O[C@@H]2O[C@H](C)C[C@H]3[C@H]2O/C(=N\C(C)C)N3C)[C@](C)(OC)C[C@@H](C)NC(=O)[C@H](C)[C@@H](O)[C@]1(C)O` registered a minimal inhibitory concentration (MIC) against Streptococcus pyogenes of more than 64 µg/mL. Further, in [1], the inhibition at 50 µM came out at 67%. In data set [2], the viability at 24 h, 50 µM was determined as 0%. The inhibition at 25 µM in [3] worked out at 55%. In addition, in [4], the inhibition at 12 µM came out at 45%. In addition, the IC50 was 1000 nM against Cytochrome P450 3A4 [5] and more than 10000 nM at Cytochrome P450 3A4 [6].
The molecule `CC[C@H]1OC(=O)[C@H](C)[C@@H](O[C@H]2C[C@@](C)(OC)[C@@H](O)[C@H](C)O2)[C@H](C)[C@@H](O[C@@H]2O[C@H](C)C[C@H]3[C@H]2O/C(=N\CCCSC)N3C)[C@](C)(OC)C[C@@H](C)C(=O)N[C@H](C)[C@@H](O)[C@]1(C)O` returned an MIC in the data set on Streptococcus pyogenes of more than 64 µg/mL. Also, the inhibition at 50 µM in data set [1] was determined as 67%. Moreover, the viability at 24 h, 50 µM in data set [2] amounted to 0%. The inhibition at 25 µM in [3] was found to be 48%. Besides, the inhibition at 12 µM in [4] amounted to 36%. Also, the IC50 at Cytochrome P450 3A4 [5] was 1330 nM; at Cytochrome P450 3A4 [6] it was more than 10000 nM.
Consider `CC[C@H]1OC(=O)[C@H](C)[C@@H](O[C@H]2C[C@@](C)(OC)[C@@H](O)[C@H](C)O2)[C@H](C)[C@@H](O[C@@H]2O[C@H](C)C[C@H]3[C@H]2O/C(=N/C(C)C)N3C)[C@](C)(OC)C[C@@H](C)N(C)C[C@H](C)[C@@H](O)[C@]1(C)O`, for which, in the data set with Streptococcus pneumoniae, the MIC is 1 µg/mL (≈ 1.23 µM).
`CC/N=C1\O[C@H]2[C@H](O[C@@H]3[C@@H](C)[C@H](O[C@H]4C[C@@](C)(OC)[C@@H](O)[C@H](C)O4)[C@@H](C)C(=O)O[C@H](CC)[C@@](C)(O)[C@H](O)[C@@H](C)N(C)C[C@H](C)C[C@@]3(C)O)O[C@H](C)C[C@@H]2N1C`: the result in the data set on Mus musculus [7] and in the data set with Mus musculus [8] was Active. Moreover, the MIC against Streptococcus pyogenes is more than 64 µg/mL. The inhibition at 50 µM in [1] came out at 99%. In addition, the viability at 24 h, 50 µM in [2] worked out at 0%. The inhibition at 25 µM in [3] turned out to be 96%. Further, the inhibition at 12 µM in data set [4] is 86%. The IC50 was 7900 nM at Cytochrome P450 3A4 [5] and more than 10000 nM on Cytochrome P450 3A4 [6].
On to `CC/N=C1/O[C@H]2[C@H](O[C@@H]3[C@@H](C)[C@H](O[C@H]4C[C@@](C)(OC)[C@@H](O)[C@H](C)O4)[C@@H](C)C(=O)O[C@H](CC)[C@@]4(C)OC5(O[C@@]3(C)C[C@H]5C)[C@H](C)[C@@H]4C)O[C@H](C)C[C@@H]2N1C`, for which the outcome in the data set on Streptococcus pneumoniae, in the data set on Streptococcus pyogenes, in the data set with Staphylococcus aureus, in the data set with Haemophilus influenzae and in the data set with Moraxella catarrhalis was Active.
Regarding `CC[C@H]1OC(=O)[C@H](C)[C@@H](O[C@H]2C[C@@](C)(OC)[C@@H](O)[C@H](C)O2)[C@H](C)[C@@H](O[C@@H]2O[C@H](C)C[C@H]3[C@H]2O/C(=N/Cc2ccccc2)N3C)[C@](C)(OC)C[C@@H](C)NC(=O)[C@H](C)[C@@H](O)[C@]1(C)O`, in the data set with Streptococcus pneumoniae, it took 1 µg/mL (≈ 1.16 µM) to inhibit growth (MIC).
Regarding `CC/N=C1/O[C@H]2[C@H](O[C@@H]3[C@@H](C)[C@H](O[C@H]4C[C@@](C)(OC)[C@@H](O)[C@H](C)O4)[C@@H](C)C(=O)O[C@H](CC)[C@]4(C)C=C(C)/C(=C(/C)C[C@]3(C)OC)O4)O[C@H](C)C[C@@H]2N1C`, the MIC against Moraxella catarrhalis turned out to be 8 µg/mL (≈ 10.7 µM).
Turning to `CC[C@H]1OC(=O)[C@H](C)[C@@H](O[C@H]2C[C@@](C)(OC)[C@@H](O)[C@H](C)O2)[C@H](C)[C@@H](O[C@@H]2O[C@H](C)C[C@H]3[C@H]2O/C(=N/Cc2ccccc2)N3C)[C@@](C)(OC)C/C(C)=C2/O[C@@]1(C)C=C2C`, in the data set with Staphylococcus aureus, the MIC came out at 8 µg/mL (≈ 9.84 µM).
In the data set on Streptococcus pyogenes, `CC[C@H]1OC(=O)[C@H](C)[C@@H](O[C@H]2C[C@@](C)(OC)[C@@H](O)[C@H](C)O2)[C@H](C)[C@@H](O[C@@H]2O[C@H](C)C[C@H]3[C@H]2O/C(=N\CCCN(C)C)N3C)[C@](C)(OC)C[C@@H](C)C(=O)[C@H](C)[C@@H](O)[C@]1(C)O` returned an MIC of more than 64 µg/mL. Moreover, in [1], the inhibition at 50 µM turned out to be 74%. Moreover, the viability at 24 h, 50 µM in data set [2] worked out at 0%. For the same molecule, the inhibition at 25 µM in [3] turned out to be 62%. Also, the inhibition at 12 µM in data set [4] worked out at 55%. Also, the IC50 against Cytochrome P450 3A4 [5] is 700 nM; against Cytochrome P450 3A4 [6] it was 8000 nM.
For the molecule `CC[C@H]1OC(=O)[C@H](C)[C@@H](O[C@H]2C[C@@](C)(OC)[C@@H](O)[C@H](C)O2)[C@H](C)[C@@H](O[C@@H]2O[C@H](C)C[C@H]3[C@H]2O/C(=N/Cc2ccccc2)N3C)[C@](C)(O)C[C@@H](C)CN(C)[C@H](C)[C@@H](O)[C@]1(C)O`, the MIC in the data set on Streptococcus pneumoniae came out at 1 µg/mL (≈ 1.18 µM).
In the data set with Streptococcus pyogenes, `CC/N=C1\O[C@H]2[C@H](O[C@@H]3[C@@H](C)[C@H](O[C@H]4C[C@@](C)(OC)[C@@H](O)[C@H](C)O4)[C@@H](C)C(=O)O[C@H](CC)[C@@](C)(O)[C@H](O)[C@@H](C)C(=O)[C@H](C)C[C@@]3(C)O)O[C@H](C)C[C@@H]2N1C` had an MIC of more than 64 µg/mL. The inhibition at 50 µM in [1] was found to be 86%. In addition, the viability at 24 h, 50 µM in [2] is 0%. The inhibition at 25 µM in [3] is 80%. In addition, in [4], the inhibition at 12 µM came to 70%. The values for the IC50 on Cytochrome P450 3A4 [5] and against Cytochrome P450 3A4 [6] were 500 nM and 5700 nM, respectively.
For the molecule `CC[C@H]1OC(=O)[C@H](C)[C@@H](O[C@H]2C[C@@](C)(OC)[C@@H](O)[C@H](C)O2)[C@H](C)[C@@H](O[C@@H]2O[C@H](C)C[C@H]3[C@H]2O/C(=N/c2ccc(OC)cc2)N3C)[C@](C)(OC)C[C@@H](C)C(=O)N[C@H](C)[C@@H](O)[C@]1(C)O`, in the data set with Streptococcus pyogenes, the MIC is more than 64 µg/mL. The inhibition at 50 µM in data set [1] is 71%. For the same molecule, in data set [2], the viability at 24 h, 50 µM is 6%. In addition, the inhibition at 25 µM in [3] was determined as 44%. For the same molecule, the inhibition at 12 µM in data set [4] came out at 39%. For the same molecule, the values for the IC50 on Cytochrome P450 3A4 [5] and on Cytochrome P450 3A4 [6] were 700 nM and 4700 nM, respectively.
Turning to `CC[C@H]1OC(=O)[C@H](C)[C@@H](O[C@H]2C[C@@](C)(OC)[C@@H](O)[C@H](C)O2)[C@H](C)[C@@H](O[C@@H]2O[C@H](C)C[C@H]3[C@H]2O/C(=N/c2cccc4ccccc24)N3C)[C@](C)(O)C[C@@H](C)CN(C)[C@H](C)[C@@H](O)[C@]1(C)O`, 1 µg/mL (≈ 1.13 µM) was the least that counted as inhibitory against Streptococcus pneumoniae (MIC).
In the data set with Streptococcus pyogenes, `CC[C@H]1OC(=O)[C@H](C)[C@@H](O[C@H]2C[C@@](C)(OC)[C@@H](O)[C@H](C)O2)[C@H](C)[C@@H](O[C@@H]2O[C@H](C)C[C@H]3[C@H]2O/C(=N\C(C)C)N3C)[C@](C)(O)C[C@@H](C)C(=O)[C@H](C)[C@@H](O)[C@]1(C)O` yielded an MIC of more than 64 µg/mL. Further, in data set [1], the inhibition at 50 µM worked out at 94%. Besides, the viability at 24 h, 50 µM in data set [2] is 0%. Besides, the inhibition at 25 µM in data set [3] amounted to 81%. Also, in [4], the inhibition at 12 µM came to 61%.
On to `CC[C@H]1OC(=O)[C@H](C)[C@@H](O[C@H]2C[C@@](C)(OC)[C@@H](O)[C@H](C)O2)[C@H](C)[C@@H](O[C@@H]2O[C@H](C)C[C@H]3[C@H]2O/C(=N\C(C)(C)C)N3C)[C@](C)(OC)C[C@@H](C)C(=O)N[C@H](C)[C@@H](O)[C@]1(C)O`, for which, in the data set with Streptococcus pyogenes, the MIC was more than 64 µg/mL. In addition, in data set [1], the inhibition at 50 µM was found to be 86%. The viability at 24 h, 50 µM in data set [2] is 0%. Also, the inhibition at 25 µM in data set [3] is 62%. Also, the inhibition at 12 µM in data set [4] came to 52%.
`CC/N=C1\O[C@H]2[C@H](O[C@@H]3[C@@H](C)[C@H](O[C@H]4C[C@@](C)(OC)[C@@H](O)[C@H](C)O4)[C@@H](C)C(=O)O[C@H](CC)[C@@](C)(O)[C@H](O)[C@@H](C)C(=O)[C@H](C)C[C@@]3(C)OC)O[C@H](C)C[C@@H]2N1C` showed an MIC against Streptococcus pyogenes of more than 64 µg/mL. In [1], the inhibition at 50 µM worked out at 73%. For the same molecule, the viability at 24 h, 50 µM in [2] was determined as 0%. Moreover, the inhibition at 25 µM in data set [3] was 64%. In [4], the inhibition at 12 µM is 55%. On Cytochrome P450 3A4 [6], this molecule had an IC50 of 2900 nM.
